According to patent US10806819B2, “Wound coverings comprising vitamin d and related methods” (Marshall University Research Corporation, priority 2015, dated 2020):

Columns and labels:
cell growth = conditions: direct administration; cited from earlier work
[1] = tested on: cathelicidin (hCAP18) in U937 cells; experiment: immunofluorescence assay of cathelicidin (hCAP18) expression in U937 cells; type: cell-based, human
Method: (§1) This Example describes an immunofluorescence assay performed on cells treated with the PCL produced in Example 1. The cells were treated with different formulations as discussed above, the cells were rinsed with PBS twice and fixed with 4% paraformaldehyde for 30 min at 37° C. followed by incubation with TNBS (0.05% Triton-X100, 2% FBS in pH 7.2 PBS) for 30 minutes at room temperature prior to immunostaining. Goat anti-cathelicidin polyclonal antibody (1:200) was incubated to label intercellular cathelicidin at 4° C. overnight. Both the full length and cleaved C terminus of cathelicidin (hCAP18) were labeled. Mouse anti-goat IgG-FITC antibody (1:100) was incubated for 2 h after removal of primary antibody and washed with TNBS three times. Then, the secondary antibody was removed and washed by TNBS three times. Nuclei were counterstained with 10 μM DAPI in blue. Images were taken with a digital camera (Carl Zeiss). The exposure time for taking images for HaCat and U937 cells was fixed at 400 ms and 40 ms, respectively.

[2] = tested on: LL-37 production in U937 cells; experiment: LL-37 ELISA of U937 cell lysate; type: cell-based, human; conditions: for amount of LL-37 produced from U937 cells: 5.0×10^−6 M
Method: (§2) This Example describes the production of LL-37 in cells treated with the PCL fibers produced in Example 1. Single cell suspensions of both HaCat cells (human keratinocyte cell line) and U937 cells (leukemic monocyte lymphoma cell line) were seeded in 6-cm culture dishes. 5.0×10^5, 2.0×10^5 and 1.0×10^5 cells were seeded in the culture dishes for 1-day, 3-day, and 5-day treatments, respectively. Cells were treated with different formulations as described above and harvested at each time point. The subconfluent HaCat cells and U937 cell suspensions were washed with PBS twice. Subsequently, 300 μl of the M-PER mammalian protein extraction reagent with 0.1% protease inhibitor cocktail was added to […]. They were agitated for 20 min and lysate was collected and transferred to a 1.5-ml microcentrifuge tube. The samples were centrifuged at 14000×g for 40 min at 4° C. to pelletize the cell debris and the supernatant was transferred to a new tube for analysis. Total protein concentration was tested by MicroBCA kit before ELISA test. Concentrations of LL-37 in cell lysate were determined by LL-37 ELISA assay kit based on the manufacturer's instructions.

OKF6-TERT2 = conditions: recent study; cited from earlier work
U937 cells = experiment: U937 cell proliferation / cytotoxicity (cell counting); type: cell-based, human; conditions: 5.0×10^−6 M, 3 days and 5 days
Method: (§3) This Example describes cell proliferation of cells treated with the PCL fibers produced in Example 1. Human keratinocyte cell line (HaCat) and monocyte cell line (U937) were cultured in D-MEM with 10% FCS and RPMI-1640 media with 10% FCS respectively. The cultures were maintained at 37° C. under 95% air and 5% CO2 until reaching 80% confluence. The subconfluent HaCat cells were dissociated with a 0.05% trypsin-EDTA and re-suspended in a fresh complete media. U937 cells were precipitated by 300 g centrifugation and then re-suspended in a fresh complete media. The single HaCat cell suspensions were created by gently pipetting up and down HaCat cell aggregates and then placed in 6-cm culture dishes and incubated for 1 day. At the beginning of experiments, 5.0×10^5, 2.0×10^5 and 1.0×10^5 cells were seeded in the culture dishes for 1-day, 3-day, and 5-day treatments, respectively. The media was then replaced by D-MEM containing 0.52% DMSO, D-MEM containing 5.0×10^−7 M 25(OH)D, D-MEM containing 5.0×10^−6 M 25(OH)D, D-MEM containing 1 mg/ml pristine PCL fibers, and D-MEM containing 1 mg/ml 25(OH)D loaded PCL fibers and incubated for 1, 3, and 5 days. Of note, 5.0×10^−6 M 25(OH)D was chosen as a control due to cytotoxicity in OKF6-TERT2 cells. […]
(§4) The HaCat cells and U937 cells were seeded in 24-well plates. […] The cell density was calculated based on the cell counting (FIGS. 5A-5B). […]

[3] = tested on: cathelicidin (hCAP18) in HaCat cells; experiment: immunofluorescence assay of cathelicidin (hCAP18) expression in HaCat cells; type: cell-based, human
Method: as §1

[4] = tested on: LL-37 production in HaCat cells; experiment: LL-37 ELISA of HaCat cell lysate; type: cell-based, human; conditions: 5.0×10^−7 M free drug
Method: as §2

HaCat cells = experiment: HaCat cell proliferation / cytotoxicity (cell counting); type: cell-based, human; conditions: 5.0×10^−6 M free drug
Method: as §3, §4

Pseudomonas aeruginosa = experiment: antibacterial activity of U937 lysis solutions (CFU count on agar plates); type: cell-based; conditions: U937 treated with 5.0×10^−6 M for 5 days
Method: FIG. 8 is a graph showing the quantification of Pseudomonas aeruginosa CFUs treated by U937 lysis solutions. U937 were incubated in the presence of 1 mg/ml pristine PCL fibers, 0.52% DMSO, 5.0×10^−7 M 25(OH)D, 5.0×10^−6 M 25(OH)D, and 1 mg/ml plasma treated and 25(OH)D loaded PCL fibers (containing 5.0×10^−7M 25(OH)D equivalent amount based on the calculations from release profiles in the first 3 days) for 1, 3 and 5 days. Bacteria were incubated with cell lysis solutions and CFUs were counted on agar plates. Each data point represents arithmetic mean±SD values from three samples. Statistical significance was evaluated by student's t-test (*p<0.05).
This Example describes the antibacterial activities in cells treated with the PCL fibers produced in Example 1. Briefly, bacteria were incubated with cell lysis solutions and CFUs were counted on agar plates.

Staphylococcus aureus = conditions: cited from earlier work

In the case of `C=C1/C(=C\C=C2/CCC[C@]3(C)[C@@H]([C@H](C)CCCC(C)(C)O)CC[C@@H]23)C[C@@H](O)C[C@@H]1O` [1,25-hydroxyvitamin D3], the “concentration generating cytotoxicity and inhibition of cell growth” value (cell growth) is listed as 10^−7 M.

In the case of `C=C1CC[C@H](O)C/C1=C/C=C1\CCC[C@]2(C)[C@@H]([C@H](C)CCCC(C)(C)O)CC[C@@H]12` [25(OH)D, 25-hydroxyvitamin D3], the “change of fluorescence intensity (hCAP 18) of U937 cells” value ([1]; 5.0×10^−6 M, day 1 to day 3) is reported as “increased”, the “change of fluorescence intensity (expression level of hCAP 18) of U937 cells” value ([1]; 5.0×10^−6 M, day 3 to day 5) is reported as “decreased” and the “hCAP 18 expression in U937 cells” value ([1]; 5.0×10^−6 M, one day) is reported as “exhibited expression of hCAP 18”. For the same molecule, the “cathelicidin staining in U937 cells” value ([1]; 5.0×10^−7 M, each time point) was “negative staining”, the “amount of LL-37 produced from U937 cells” value ([2]; 3 days) was “increased” and the “amount of LL-37 produced from U937 cells” value ([2]; 5 days) was “decreased sharply”. The “production of hCAP 18 and LL-37 in U937 cells” value ([2]; 5.0×10^−7 M free drug) was “failed to induce production of significant amount”, the “concentration toxic to OKF6-TERT2” value (OKF6-TERT2) was at least 5 µM and the “concentration with little cytotoxicity in OKF6-TERT2” value (OKF6-TERT2) was “lower than 5.0×10^−7 M”. The “proliferation rate of U937 cells” value (U937 cells) was “reduced dramatically”, the “hCAP 18 staining in HaCat cells” value ([3]; 5.0×10^−6 M, 3 days) was “positive green fluorescent staining” and the “hCAP 18 expression in HaCat cells” value ([3]; 5.0×10^−7 M) was “did not demonstrate hCAP 18 expression”. The “production of hCAP 18 and LL-37 in HaCat cells” value [4] was “failed to induce production of significant amount”, the “cytotoxic effects on HaCat cells” value (HaCat cells) was “marginal cytotoxic effects” and the “numbers of CFUs after incubation with U937 lysis solutions, versus other treatment groups” value (Pseudomonas aeruginosa) was “significantly lower numbers of CFUs”.

In the case of “LL-37: human cathelicidin, small cationic antimicrobial peptide derived from hCAP-18”, the “EC50 against Staphylococcus aureus” value (Staphylococcus aureus) is listed as 1.27 µg/mL.
